Test results reported in US20240262842A1, “SMALL MOLECULE INHIBITORS OF KRAS G12C MUTANT” (Merck Sharp & Dohme LLC, priority 2021, published 2024).
Where two headings read alike, the source gives them in different places.

Tests used:
[1] = target: T1, interaction between GMPPNP-bound recombinant K-Ras4B G12C mutant protein and cRAF RAS-binding domain (cRAF-RBD) (Homo sapiens, UniProt P01116, G12C); assay: Inhibitory activity on interaction between KRAS G12C and cRAF (Alpha technology)
T1 construct: His-tag (N)
How it was run: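 Alpha signal measured 1.5 h after adding cRAF-RBD (aa 50-132) and detection reagents to GMPPNP-bound KRAS G12C (aa 1-169) pretreated 1 h at 25° C with compound (pH 7.5 buffer). 0% inhibition = DMSO, 100% = GDP-loaded KRAS; IC50 by curve fit.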

[2] = system: MIA PaCa-2 cells; assay: Growth inhibition activity on KRAS-G12C mutant cell line (CellTiter-Glo 3D); type: cell-based, human; details: MIA PaCa-2, 3-day culture with compound
How it was run: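 IC50 (nM) derived from inhibition of luminescence (CellTiter-Glo 3D) relative to compound-free wells. Cells were seeded in U-bottom plates, grown 1 day, then exposed to compound for 3 days at 37 °C with 0.2% final DMSO.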

[3] = IC50, GMPPNP-bound KRAS G12C incubated with compound 25° C. 1 hour, Table 2
[4] = Homo sapiens, MIA PaCa-2, 72 h, Table 3
[5] = GMPPNP-bound KRAS G12C incubated with compound 25° C. 1 hour, Table 2-1, read-out: IC50
[6] = Homo sapiens, MIA PaCa-2, 72 h, Table 3-1
[7] = IC50, GMPPNP-bound KRAS G12C incubated with compound 25° C. 1 hour, Table 2-1

Compound | IC50 [1, 5] [nM] | IC50 [2, 6] [nM] | also measured
CO[C@H]1CC[C@H](NC/C=C/C(=O)Nc2c(F)cc(C(=O)c3cn4c5c(cccc35)-c3c(C)cc5c(nc(C)n5C)c3OC[C@@H](C)C4)cc2F)CC1 [Example 22, (E)-N-(2,6-difluoro-4-((S)-6,8,9,13-tetramethyl-13,14-dihydro-8H, 12H-imidazo[4″,5″:3′,4′]benzo[1′,248,9][1,5]oxazonino[7,6,5-hi]indole-2-carbonyl)phenyl)-4-(((1,4r)-4-methoxycyclohexyl)amino)but-2-enamide] |  |  | IC50 [1, 3]: 100 nM; IC50 [2, 4]: 100 nM
CO[C@H]1CC[C@H](NC/C=C/C(=O)Nc2c(F)cc(C(=O)c3cn4c5c(cccc35)-c3c(F)cccc3OCC4)cc2F)CC1 [Example 7] |  |  | IC50 [1, 3]: 840 nM; IC50 [2, 4]: 1100 nM
Cn1cnc2c3c(c(C(F)(F)F)cc21)-c1cccn2c(C(=O)c4cc(F)c(NC(=O)/C=C/CN5C[C@H]6COC[C@H]6C5)c(F)c4)cc(c12)CCO3 [Example 213, (E)-N-(2,6-difluoro-4-(9-methyl-7-(trifluorometh-yl)-13,14-dihydro-9H-imidazo[4″,5″:5′,6′]benzo-[1′,2′:2,3]oxocino[4,5,6-hi]indolizine-2-carbonyl)-phenyl)-4-((3aR,6aS)-tetrahydro-1H-furo[3,4-c]pyrrol-5(3H)-yl)but-2-enamide] | 62.1 | 25.3 | 
(E)-N-(2,6-difluoro-4-(10-(methoxymethyl)-9,13-dimethyl-12-oxo-7-(trifluoromethyl)-9,12,13,14-tetrahydroimidazo[4″,5″:3′,4′]benzo[1′,2′:6,7]azocino[5,4,3-hi]indolizine-2-carbonyl)phenyl)-4-((3-methyloxetan-3-yl)amino)but-2-enamide [Example 152] | 89.3 |  | IC50 ([2]; Table 3-1): 927 nM
Cn1cnc2c3c(c(C(F)(F)F)cc21)-c1cccn2c(C(=O)c4cc(F)c(NC(=O)/C=C/CN5CCC5)c(F)c4)cc(c12)CCO3 [Example 161, (E)-4-(azetidin-1-yl)-N-(2,6-difluoro-4-(9-methyl-7-(trifluoromethyl)-13,14-dihydro-9H-imidazo-[4″,5″:5′,6′]benzo[1′,2′: 2,3]oxocino[4,5,6-hi]-indolizine-2-carbonyl)-phenyl)but-2-enamide] | 63.2 | 21.6 | 
CC1Cc2cc(C(=O)c3cc(F)c(NC(=O)/C=C/CNC4(C)COC4)c(F)c3)n3cccc(c23)-c2c(C(F)(F)F)cc3c(ncn3C)c2O1 (single isomer, unassigned) [Example 130-2, (E)-N-(4-(9,13-dimethyl-7-(trifluoromethyl)-13,14-dihydro-9H-imidazo[4″,5″:5′,6′]benzo[1′,2′:2,3]oxocino[4,5,6-hi]indolizine-2-carbonyl)-2,6-difluorophenyl)-4-((3-methyloxetan-3-yl)amino)but-2-enamide] | 3760 |  | IC50 ([2]; Table 3-1): 3410 nM
COCC1(NC/C=C/C(=O)Nc2c(F)cc(C(=O)c3cc4c5c(cccn35)-c3c(C(F)(F)F)cc5c(ncn5C)c3N(C)CC4)cc2F)CCCC1 [Example 127, (E)-N-(4-(9,12-dimethyl-7-(trifluoromethyl)-9,12,13,14-tetrahydro-imidazo[4″,5″:5′,6′]benzo-[1′,2′:2,3]azocino[4,5,6-hi]indolizine-2-carbonyl)-2,6-difluorophenyl)-4-((1-(methoxymethyl)cyclo-pentyl)amino)but-2-en-amide] | 16.8 | 22.5 | 
Cc1nc2c3c(c(C(F)(F)F)cc2n1C)-c1cccn2c(C(=O)c4cc(F)c(NC(=O)/C=C/CN[C@@H]5COC[C@H]5O)c(F)c4)cc(c12)CCN3C [Example 137] | 33.5 | 14.9 | 
CN1CCc2cc(C(=O)c3cc(F)c(NC(=O)/C=C/CNC4(C)CC4)c(F)c3)n3cccc(c23)-c2c(C(F)(F)F)cc3[nH]cnc3c21 (atropisomer, axis not shown) [Example 239, (E)-N-(2,6-difluoro-4-(12-methyl-7-(trifluorometh-yl)-9,12,13,14-tetrahydro-imidazo[4″,5″:5′,6′]benzo-[1′,2′:2,3]azocino[4,5,6-hi]indolizine-2-carbonyl)-phenyl)-4-((1-methyl-cyclopropyl)amino)but-2-enamide] | 18.2 | 9.69 | 
Cc1cc2c(nc(C)n2C)c2c1-c1cccc3c(C(=O)c4cc(F)c(NC(=O)/C=C/CN[C@H]5[C@@H]6COC[C@@H]65)c(F)c4)cn(c13)CCN2C [Example 143, (E)-4-(((1R,5S,6r)-3-oxa-bicyclo[3.1.0]hexan-6-yl)amino)-N-(2,6-difluoro-4-(6,8,9,11-tetramethyl-8,11,12,13-tetrahydro-imidazo[4″,5″:5′,6′]benzo-[1′,2′:5,6][1,4]diazocino-[7,8,1-hi]indole-2-carbon-yl)phenyl)but-2-enamide] |  | 47.7 | IC50 [1, 7]: 17.8 nM
CO[C@H]1CC[C@H](NC/C=C/C(=O)Nc2c(F)cc(C(=O)c3nn4c5c(cccc35)-c3c(C(F)(F)F)cc5c(nc(C)n5C)c3OCC4)cc2F)CC1 [Example 46, (E)-N-(4-(8,9-dimethyl-6-(trifluoromethyl)-12,13-dihydro-8H-imidazo[4″,5″:3′4′]benzo[1′,2′:7,8][1,4]oxazocino[6,5,4-hi]indazole-2-carbonyl)-2,6-difluorophenyl)-4-(((1r,4r)-4-methoxycyclohexyl)amino)but-2-enamide] |  |  | IC50 ([1]; GMPPNP-bound KRAS G12C incubated with compound 25° C. 1 hour, Table 2, read-out: IC50): 140 nM; IC50 [2, 4]: 57 nM
Cc1cc2c(nc(C)n2C)c2c1-c1cccc3c(C(=O)c4cc(F)c(NC(=O)/C=C/CN[C@H]5CCOC5)c(F)c4)cn(c13)CCN2C (single isomer, unassigned) [Example 90] |  | 21.6 | IC50 [1, 7]: 17.2 nM
COc1cc2c(nc(C)n2C)c2c1-c1cc(F)cn3c(C(=O)c4cc(F)c(NC(=O)/C=C/CN[C@H]5CCOC5)c(F)c4)cc(c13)CCN2C (single isomer, unassigned) [Example 237] | 11.4 | 2.77 | 
CCNC/C=C/C(=O)Nc1c(F)cc(C(=O)c2cc3c4c(cccn24)-c2c(C(F)(F)F)cc4c(ncn4C)c2N(C)CC3)cc1F [Example 111, (E)-N-(4-(9,12-dimethyl-7-(trifluoromethyl)-9,12,13,14-tetrahydro-imidazo[4″,5″:5′,6′]benzo-[1′,2′:2,3]azocino[4,5,6-hi]indolizine-2-carbonyl)-2,6-difluorophenyl)-4-(ethylamino)but-2-enamide] | 31.3 | 8.95 | 
Cn1cnc2c3c(c(C(F)(F)F)cc21)-c1cccn2c(C(=O)c4cc(F)c(NC(=O)/C=C/CNC56CCC(CC5)OC6)c(F)c4)cc(c12)CCO3 [Example 125] | 3.75 | 9.06 | 
CCN1CCn2cc(C(=O)c3cc(F)c(NC(=O)/C=C/CN[C@H]4CC[C@H](OC)CC4)c(F)c3)c3cccc(c32)-c2c(C)cc3c(nc(C)n3C)c21 [Example 66, (E)-N-(4-(11-ethyl-6,8,9-trimethyl-8,11,12,13-tetra-hydroimidazo[4″,5″:5′,6′]-benzo[1′,2′:5,6][1,4]diazo-cino[7,8,1-hi]indole-2-carbonyl)-2,6-difluoro-phenyl)-4-(((1r,4r)-4-meth-oxycyclohexyl)amino)but-2-enamide] |  | 30.1 | IC50 [1, 7]: 53.4 nM
Cc1cc2c(nc(C)n2C)c2c1-c1cccc3c(C(=O)c4cc(F)c(NC(=O)/C=C/CN5CCC[C@H]5C(C)(C)O)c(F)c4)cn(c13)CCN2C [Example 122, (S,E)-N-(2,6-difluoro-4-(6,8,9,11-tetramethyl-8,11,12,13-tetrahydro-imidazo[4″,5″:5′,6′]benzo-[1′,2′:5,6][1,4]diazocino-[7,8,1-hi]indole-2-carbon-yl)phenyl)-4-(2-(2-hydroxypropan-2-yl)-pyrrolidin-1-yl)but-2-enamide] |  | 88.2 | IC50 [1, 7]: 54.1 nM
COCc1nc2c3c(c(C(F)(F)F)cc2n1C)-c1cccn2c(C(=O)c4cc(F)c(NC(=O)/C=C/CN[C@H]5CCOC5)c(F)c4)cc(c12)CCO3 [Example 118, (S,E)-N-(2,6-difluoro-4-(10-(methoxymethyl)-9-methyl-7-(trifluorometh-yl)-13,14-dihydro-9H-imidazo[4″,5″:5′,6′]benzo-[1′,2′:2,3]oxocino[4,5,6-hi]indolizine-2-carbonyl)-phenyl)-4-((tetrahydro-furan-3-yl)amino)but-2-enamide] | 12.6 | 4.2 | 
Cc1cc2c(ncn2C)c2c1-c1cccn3c(C(=O)c4cc(F)c(NC(=O)/C=C/CN[C@H]5CCOC5)c(F)c4)cc(c13)CCN2C (single isomer, unassigned) [Example 117] | 20.5 | 55.3 | 
Cn1cnc2c3c(c(C(F)(F)F)cc21)-c1cccn2c(C(=O)c4cc(F)c(NC(=O)/C=C/CN5C6CCCC5COC6)c(F)c4)cc(c12)CCO3 [Example 221, (E)-4-(3-oxa-9-azabicyclo-[3.3.1]nonan-9-yl)-N-(2,6-difluoro-4-(9-methyl-7-(trifluoromethyl)-13,14-dihydro-9H-imidazo[4″,5″: 5′,6′]benzo[1′,2′:2,3]oxo-cino[4,5,6-hi]indolizine-2-carbonyl)phenyl)but-2-enamide] | 39.2 | 20.9 | 
